# Legend:
# [1] = Company studies of solubility and sustained release
# [2] = test system: Cell lines of human bladder cancer; test: MTT viability assay, MMC in DTC-2 versus MMC in saline; assay type: cell-based; conditions: cell lines exposed to MMC
# Protocol: An in-vitro study was performed to evaluate the efficacy of DTCx materials as cytotoxic agents in the urinary bladder. […] Viability was assessed by MTT assay which tests mitochondrial function.
# Cell lines of human bladder cancer were grown in RPMI 1640 medium, supplemented with FBS, 100 U/ml penicillin and […] streptomycin. […] After 2 hours of incubation, medium was replaced with fresh medium for all plates.
# The plates were tested by taking out the medium and adding fresh medium containing MTT reagent. All other plates were returned to the incubator for incubation of 24, 72, 120 and 144 h. MTT assays were used to assess toxicity at all time points. The proportion of living cells was calculated by comparison to the control vehicle.
# A microplate reader (EL 312e: Bio-Tek Instruments, Winooski VT) was used to evaluate the presence of […] as a color development measured by absorbance spectroscopy at 450 nm. Background optical density (OD) was subtracted from the OD readings of all samples. Cell viability was calculated by dividing the mean OD absorbance values of the treated wells by the mean OD absorbance of the control wells. All samples were tested in triplicate.
# Reference is now made to FIGS. 3A-3D, which show graphs of cell viability as a function of time for various experiments.
# [3] = test system: TCC cell cultures and human bladder tumor tissue cultures; conditions: cited from earlier work
Compound,Solubility and release behaviour in the invented platform [1],Higher cell kill with 10× longer exposure time or 10× higher concentration [2],Concentration needed for similar cell kill effect when exposure reduced from 24 hours to two hours [3]
COc1cccc2c1C(=O)c1c(O)c3c(c(O)c1C2=O)C[C@@](O)(C(=O)CO)C[C@@H]3O[C@H]1C[C@H](N)[C@H](O)[C@H](C)O1 [Doxorubicin],solubility and first order sustained release,–,–
Nc1ccn([C@@H]2O[C@H](CO)[C@@H](O)C2(F)F)c(=O)n1 [Gemcitabin],solubility and first order sustained release,–,–
"CO[C@@]12[C@H](COC(N)=O)C3=C(C(=O)C(C)=C(N)C3=O)N1C[C@@H]1N[C@@H]12 [MMC, Mitomycin C]",–,up to 30 ×,ten times higher concentration
O=C(O)Cc1ccccc1Nc1c(Cl)cccc1Cl [voltaren],solubility and first order sustained release,–,–
Abamectin,solubility and first order sustained release,–,–

# Reference: patent US12440568B2 (priority 2010, dated 2025)
